US9963448B2, “Bicyclic inhibitors of PAD4” (Padlock Therapeutics, Inc., priority 2015, dated 2018)
Counter-ions that a name gives are not always drawn. Like-named read-outs stand apart in the source and are kept apart here.

Key:
hPAD4 = hPAD4 (Homo sapiens, UniProt Q9UM07); assay: hPAD4 RFMS (RapidFire mass spectrometry) PAD4 inhibition assay; format: biochemical; conditions: hPAD4 enzyme, RFMS readout;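 on hPAD4 RFMS pIC50: grade E means pIC50 at most 4 and F means pIC50 4.0 to 5.0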
Procedure: (§1) Compounds of the present invention were assayed as inhibitors of PAD4 using the assay protocol described below.
(§2) Compound stock solutions were stored at RT. […] Final assay conditions were as follows:
(§3) Total incubation time: 65 mins at 37° C.
(§4) Stop solution: 40 μl 5% TCA in ACN
(§5) The compound numbers correspond to the compound numbers in Table 1. […] The term pIC50=−log(IC50). […] “NA” stands for “not assayed.”

mPAD4 = mPAD4 (Mus musculus, UniProt Q9Z183); assay: mPAD4 RFMS PAD4 inhibition assay; format: biochemical; conditions: mPAD4, RFMS readout;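 on mPAD4 RFMS pIC50: grade E means pIC50 at most 4 and F means pIC50 4.0 to 5.0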
Chain of mPAD4 (Q9Z183 whole entry): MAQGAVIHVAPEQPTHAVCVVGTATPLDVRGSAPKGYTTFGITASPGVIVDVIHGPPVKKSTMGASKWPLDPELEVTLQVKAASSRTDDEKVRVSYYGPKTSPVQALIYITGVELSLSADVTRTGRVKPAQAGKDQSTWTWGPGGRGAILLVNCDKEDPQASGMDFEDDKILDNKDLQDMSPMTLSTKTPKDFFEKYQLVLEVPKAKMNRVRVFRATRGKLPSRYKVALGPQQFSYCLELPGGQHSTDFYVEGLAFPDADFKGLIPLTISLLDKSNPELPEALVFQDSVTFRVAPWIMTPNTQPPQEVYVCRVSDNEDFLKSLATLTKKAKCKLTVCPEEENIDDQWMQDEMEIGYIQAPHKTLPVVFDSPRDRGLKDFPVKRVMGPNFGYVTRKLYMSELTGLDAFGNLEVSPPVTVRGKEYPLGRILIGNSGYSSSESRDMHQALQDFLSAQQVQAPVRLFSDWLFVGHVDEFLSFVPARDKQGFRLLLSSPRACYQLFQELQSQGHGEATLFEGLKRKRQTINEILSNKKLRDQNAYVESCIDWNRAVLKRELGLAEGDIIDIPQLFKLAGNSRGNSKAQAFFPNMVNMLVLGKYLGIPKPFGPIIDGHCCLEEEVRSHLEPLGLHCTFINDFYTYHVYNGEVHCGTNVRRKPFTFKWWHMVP
Procedure: as §1, §2, §3, §4, §5

[1] = pIC50=−log(IC50), read-out: hPAD4 RFMS pIC50 (converted)
[2] = pIC50=−log(IC50), read-out: mPAD4 RFMS pIC50 (converted)

Chain of hPAD4 (Q9UM07 whole entry): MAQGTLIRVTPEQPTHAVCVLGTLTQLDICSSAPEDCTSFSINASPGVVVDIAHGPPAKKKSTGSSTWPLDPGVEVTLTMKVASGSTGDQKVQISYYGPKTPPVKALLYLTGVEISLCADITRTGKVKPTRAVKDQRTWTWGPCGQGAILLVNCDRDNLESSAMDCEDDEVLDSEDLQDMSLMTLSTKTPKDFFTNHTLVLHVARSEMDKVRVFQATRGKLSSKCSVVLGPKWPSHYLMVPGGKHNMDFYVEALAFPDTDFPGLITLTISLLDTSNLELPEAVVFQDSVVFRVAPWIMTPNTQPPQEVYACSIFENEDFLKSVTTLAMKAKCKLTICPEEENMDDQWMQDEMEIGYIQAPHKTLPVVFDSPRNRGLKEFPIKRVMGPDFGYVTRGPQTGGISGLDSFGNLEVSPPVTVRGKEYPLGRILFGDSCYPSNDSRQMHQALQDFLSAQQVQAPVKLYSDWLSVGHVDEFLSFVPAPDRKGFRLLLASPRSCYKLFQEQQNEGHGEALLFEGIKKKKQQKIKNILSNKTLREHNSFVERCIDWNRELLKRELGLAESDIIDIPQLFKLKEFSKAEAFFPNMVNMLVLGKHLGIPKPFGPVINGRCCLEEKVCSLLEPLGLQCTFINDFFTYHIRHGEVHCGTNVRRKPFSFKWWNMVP

Structure (SMILES) | IC50 (hPAD4; [1]) | IC50 (hPAD4; read-out: hPAD4 RFMS IC50) | IC50 (mPAD4; [2]) | IC50 (mPAD4; read-out: mPAD4 RFMS IC50) | hPAD4 RFMS pIC50 (hPAD4; pIC50=−log(IC50))
COC1CCN(C(=O)c2ccc3c(c2)nc(-c2cc4cccnc4n2CC2CC2)n3C)CC1N (racemic) [Compound I-62, 1-{2-[1-(cyclopropylmethyl)-1H-pyrrolo[2,3-b]pyridin-2-yl]-1-methyl-1H-1,3-benzodiazole-5-carbonyl}-4-methoxypiperidin-3-amine] | 1 to 10 µM | 1 to 5 µM | 1 to 10 µM | 5 to 10 µM | –
COc1cc(C(=O)N2CC(O)(C3CCCCN3)C2)cc2nc(-c3cc4cccnc4n3CC3CC3)n(C)c12 (racemic) [Compound I-74] | 10 to 100 µM | > 10 µM | 10 to 100 µM | > 10 µM | –
COc1cc(C(=O)N2CCC(F)C(N)C2)cc2nc(-c3cc4cccnc4n3CC3CC3)n(C)c12 (racemic) [Compound I-75, 1-{2-[1-(Cyclopropylmethyl)-1H-pyrrolo[2,3-b]pyridin-2-yl]-7-methoxy-1-methyl-1H-1,3-benzodiazole-5-carbonyl}-4-fluoropiperidin-3-amine] | 1 to 10 µM | 1 to 5 µM | 1 to 10 µM | 1 to 5 µM | –
CN[C@@H]1C[C@@H](O)CN(C(=O)c2cc(OC)c3c(c2)nc(-c2cc4cccnc4n2CC2CC2)n3C)C1 (racemic) [Compound I-77, Rel-(3R,5R)-1-{2-[1-(cyclopropylmethyl)-1H-pyrrolo[2,3-b]pyridin-2-yl]-7-methoxy-1-methyl-1H-1,3-benzodiazole-5-carbonyl}-5-(methylamino)piperidin-3-ol hydrochloride] | 10 to 100 µM | > 10 µM | 10 to 100 µM | > 10 µM | –
COc1cc(C(=O)N2C[C@@H](N)C[C@H](O)C2)cc2nc(-c3cc4cccnc4n3CC3CC3)n(C)c12 (racemic) [Compound I-80] | 1 to 10 µM | 5 to 10 µM | 1 to 10 µM | 1 to 5 µM | –
COc1cc(C(=O)N2CC(N)CC(C#N)C2)cc2nc(-c3cc4cccnc4n3CC3CC3)n(C)c12 (racemic) [Compound I-82, 5-Amino-1-{2-[1-(cyclopropylmethyl)-1H-pyrrolo[2,3-b]pyridin-2-yl]-7-methoxy-1-methyl-1H-1,3-benzodiazole-5-carbonyl}piperidine-3-carbonitrile] | 10 to 100 µM | > 10 µM | 10 to 100 µM | > 10 µM | –
COc1cc(C(=O)N2CCC3OCCNC3C2)cc2nc(-c3cc4cccnc4n3CC3CC3)n(C)c12 (racemic) [Compound I-83] | 1 to 10 µM | 1 to 5 µM | 1 to 10 µM | 1 to 5 µM | –
COc1cc(C(=O)N2CCC(OC(F)F)C(N)C2)cc2nc(-c3cc4cccnc4n3CC3CC3)n(C)c12 (racemic) [Compound I-86, rac-(3R,4S)-1-{2-[1-(cyclopropylmethyl)-1H-pyrrolo[2,3-b]pyridin-2-yl]-7-methoxy-1-methyl-1H-1,3-benzodiazole-5-carbonyl}-4-(difluoromethoxy)piperidin-3-amine] | < 1 µM | < 1 µM | < 1 µM | < 1 µM | –
COc1cc(C(=O)N2CC3COCC3(CN)C2)cc2nc(-c3cc4cccnc4n3CC3CC3)n(C)c12 (racemic) [Compound I-96] | 10 to 100 µM | > 10 µM | 10 to 100 µM | > 10 µM | –
COc1cc(C(=O)N2CCC3(CNCCC3(F)F)C2)cc2nc(-c3cc4cccnc4n3CC3CC3)n(C)c12 (racemic) [Compound I-97] | 10 to 100 µM | > 10 µM | 10 to 100 µM | > 10 µM | –
COc1cc(C(=O)N2C[C@H]3CCC2[C@H]3N)cc2nc(-c3cc4cc(/C=C/c5ccccc5)ccc4n3CC3CC3)n(C)c12 [Compound I-359] | < 1 µM | < 1 µM | – | – | –
COc1cc(C(=O)N2C[C@H]3CCC2[C@H]3N)cc2nc(-c3cc4cc(/C=C/CCc5ccccc5)ccc4n3CC3CC3)n(C)c12 [Compound I-360] | < 1 µM | < 1 µM | – | – | –
COc1cc(C(=O)N2C[C@H]3CC[C@H]2[C@H]3N)cc2nc(-c3cc4cc(/C=C/c5ccc(C(F)(F)F)cc5)ccc4n3CC3CC3)n(C)c12 [Compound I-361, ((1S,4R)-7-amino-2-azabicyclo[2.2.1]heptan-2-yl)(2-(1-(cyclopropylmethyl)-5-((E)-4-(trifluoromethyl)styryl)-1H-indol-2-yl)-7-methoxy-1-methyl-1H-benzo[d]imidazol-5-yl)methanone] | < 1 µM | < 1 µM | – | – | –
COc1cc(C(=O)N2C[C@H]3CC[C@@H]2[C@@H]3N)cc2nc(-c3cc4cc(C5=Cc6ccccc6C5)ccc4n3CC3CC3)n(C)c12 [Compound I-362] | < 1 µM | < 1 µM | – | – | –
COc1cc(C(=O)N2C[C@H]3CCC2[C@H]3N)cc2nc(-c3cc4ccc(/C=C/C5CC5)cc4n3CC3CC3)n(C)c12 [Compound I-363] | < 1 µM | < 1 µM | – | – | –
COc1cc(C(=O)N2C[C@H]3CCC2[C@H]3N)cc2nc(-c3cc4ccc(/C=C/CC(C)C)cc4n3CC3CC3)n(C)c12 [Compound I-364] | < 1 µM | < 1 µM | – | – | –
COc1cc(C(=O)N2C[C@H]3CCC2[C@H]3N)cc2nc(-c3cc4ccc(/C=C/c5ccccc5)cc4n3CC3CC3)n(C)c12 [Compound I-365] | < 1 µM | < 1 µM | – | – | –
COc1cc(C(=O)N2C[C@H]3CCC2[C@H]3N)cc2nc(-c3cc4ccc(/C=C/Cc5ccccc5)cc4n3CC3CC3)n(C)c12 [Compound I-366] | < 1 µM | < 1 µM | – | – | –
COc1cc(C(=O)N2C[C@H]3CCC2[C@H]3N)cc2nc(-c3cc4ccc(/C=C/c5ccc(C(F)(F)F)cc5)cc4n3CC3CC3)n(C)c12 [Compound I-367] | < 1 µM | < 1 µM | – | – | –
COc1cc(C(=O)N2C[C@H]3CCC2[C@H]3N)cc2nc(-c3cc4ccc(C5=Cc6ccccc6C5)cc4n3CC3CC3)n(C)c12 [Compound I-368] | < 1 µM | < 1 µM | – | – | –
COc1cc(C(=O)N2C[C@H]3CCC2[C@H]3N)cc2nc(-c3cc4ccc(/C=C/CCc5ccccc5)cc4n3CC3CC3)n(C)c12 [Compound I-369] | < 1 µM | < 1 µM | – | – | –
COc1cc(C(=O)N2C[C@H]3CC[C@@H]2[C@@H]3N)cc2nc(-c3cc4ccc(C#N)cc4n3CC3CC3)n(C)c12 [Compound I-371] | < 1 µM | < 1 µM | – | – | –
COc1cc(C(=O)N2C[C@H]3CC[C@@H]2[C@@H]3N)cc2nc(-c3cc4cc(NCC5CC5)ccc4n3CC3CC3)n(C)c12 [Compound I-372] | – | 1 to 5 µM | – | – | G/H
COc1cc(C(=O)N2C[C@H]3CCC2[C@H]3N)cc2nc(-c3cc4cc(N(C)CCC5CC5)ccc4n3CC3CC3)n(C)c12 [Compound I-373] | 1 to 10 µM | 1 to 5 µM | – | – | –
COc1cc(C(=O)N2C[C@H]3CC[C@H]2[C@H]3N)cc2nc(-c3cc4cc(NCCC5CC5)ccc4n3CC3CC3)n(C)c12 [Compound I-374, ((1S,4R)-7-amino-2-azabicyclo[2.2.1]heptan-2-yl)(2-(5-((2-cyclopropylethyl)amino)-1-(cyclopropylmethyl)-1H-indol-2-yl)-7-methoxy-1-methyl-1H-benzo[d]imidazol-5-yl)methanone] | < 1 µM | < 1 µM | – | – | –
COc1cc(C(=O)N2C[C@H]3CC[C@@H]2[C@@H]3N)cc2nc(-c3cc4ccc(NCCC5CC5)cc4n3CC3CC3)n(C)c12 [Compound I-375] | < 1 µM | < 1 µM | – | – | –
COc1cc(C(=O)N2C[C@H]3CC[C@@H]2[C@@H]3N)cc2nc(-c3cc4ccc(N(C)CCC5CC5)cc4n3CC3CC3)n(C)c12 [Compound I-376] | < 1 µM | < 1 µM | – | – | –
